Experimental data: patent US20260083851A1 (AVILAR THERAPEUTICS, INC., priority 2022, published 2026)
Like-named read-outs stand apart in the source and are kept apart here.

Target: T1, ASGP receptor (biotinylated ASGPR) (Homo sapiens, UniProt P07306)
T1 construct: biotin (biotinylated)
T1 sequence (P07306 1-291): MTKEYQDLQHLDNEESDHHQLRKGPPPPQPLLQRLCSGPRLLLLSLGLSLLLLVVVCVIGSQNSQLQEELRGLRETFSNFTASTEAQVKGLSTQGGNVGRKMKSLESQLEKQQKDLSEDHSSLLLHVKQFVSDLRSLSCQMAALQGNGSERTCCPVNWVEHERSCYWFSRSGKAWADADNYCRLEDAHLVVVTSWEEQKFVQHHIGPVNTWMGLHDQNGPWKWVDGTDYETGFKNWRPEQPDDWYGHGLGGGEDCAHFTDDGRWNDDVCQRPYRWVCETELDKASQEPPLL
Assay type: binding
Details: SPR, Biacore 8K, 25° C., Table 1C, read-out: ASGPR KD

Compound | Kd | Kd (numeric bound)
O=C(O)c1ccc(CN2CCN(C[C@H]3OC[C@H](Nc4cncc(C(F)(F)F)n4)[C@@H](O)[C@H]3O)CC2)nn1 [A205, 6-((4-(((2R,3R,4R,5S)-3,4-dihydroxy-5-((6-(trifluoromethyl)pyrazin-2-yl)amino)tetrahydro-2H-pyran-2-yl)methyl)piperazin-1-yl)methyl)pyridazine-3-carboxylic acid] | < 10 µM | 
O=C(O)CN1CCC(N2CCN(C[C@H]3OC[C@H](Nc4cncc(C(F)(F)F)n4)[C@@H](O)[C@H]3O)CC2)CC1 [A206, 2-(4-(4-(((2R,3R,4R,5S)-3,4-dihydroxy-5-((6-(trifluoromethyl)pyrazin-2-yl)amino)tetrahydro-2H-pyran-2-yl)methyl)piperazin-1-yl)piperidin-1-yl)acetic acid] | < 10 µM | 
O=C(O)c1ccc(N2CCN(C[C@H]3OC[C@H](Nc4cncc(C(F)(F)F)n4)[C@@H](O)[C@H]3O)CC2)nn1 [A207, 6-(4-(((2R,3R,4R,5S)-3,4-dihydroxy-5-((6-(trifluoromethyl)pyrazin-2-yl)amino)tetrahydro-2H-pyran-2-yl)methyl)piperazin-1-yl)pyridazine-3-carboxylic acid] | < 10 µM | 
OC[C@H]1O[C@@H](c2ccccc2)[C@H](Oc2cccc(C(F)(F)F)n2)[C@@H](O)[C@H]1O [A208, (2R,3R,4S,5R,6S)-2-(hydroxymethyl)-6-phenyl-5-((6-(trifluoromethyl)pyridin-2-yl)oxy)tetrahydro-2H-pyran-3,4-diol] |  | > 30 µM
O[C@@H]1[C@H](O)[C@@H](Nc2cncc(C(F)(F)F)n2)CO[C@@H]1Cc1nnc(-c2ccccc2)o1 [A209, (2R,3R,4R,5S)-2-((5-phenyl-1,3,4-oxadiazol-2-yl)methyl)-5-((6-(trifluoromethyl)pyrazin-2-yl)amino)tetrahydro-2H-pyran-3,4-diol] | < 10 µM | 
O[C@@H]1[C@H](O)[C@@H](Oc2cncc(C(F)(F)F)n2)CO[C@@H]1COc1ccc(Br)c(F)c1 [A210, (2R,3R,4S,5S)-2-((4-bromo-3-fluorophenoxy)methyl)-5-((6-(trifluoromethyl)pyrazin-2-yl)oxy)tetrahydro-2H-pyran-3,4-diol] | < 10 µM | 
O[C@@H]1[C@H](O)[C@@H](Nc2cncc(C(F)(F)F)n2)CO[C@@H]1COc1cccnn1 [A212, (2R,3R,4R,5S)-2-((pyridazin-3-yloxy)methyl)-5-((6-(trifluoromethyl)pyrazin-2-yl)amino)tetrahydro-2H-pyran-3,4-diol] | < 10 µM | 
CC(C)(C)OC(=O)N1CCN(c2ccc(OC[C@H]3OC[C@H](Oc4cccc(C(F)(F)F)n4)[C@@H](O)[C@H]3O)cc2F)CC1 [A213, tert-butyl 4-(4-(((2R,3R,4S,5S)-3,4-dihydroxy-5-((6-(trifluoromethyl)pyridin-2-yl)oxy)tetrahydro-2H-pyran-2-yl)methoxy)-2-fluorophenyl) piperazine-1-carboxylate] | < 10 µM | 
C#C[C@H]1O[C@H](C)[C@H](O)[C@H](O)[C@H]1Oc1cccc(C(F)(F)F)n1 [A214, (2R,3R,4S,5R,6R)-6-ethynyl-2-methyl-5-((6-(trifluoromethyl)pyridin-2-yl)oxy)tetrahydro-2H-pyran-3,4-diol] | < 10 µM | 
O=C(O)c1ccc(-c2ccc(OC[C@H]3OC[C@H](Nc4cncc(C(F)(F)F)n4)[C@@H](O)[C@H]3O)cc2)cc1 [A215, 4′-(((2R,3R,4R,5S)-3,4-dihydroxy-5-((6-(trifluoromethyl)pyrazin-2-yl)amino)tetrahydro-2H-pyran-2-yl)methoxy)-[1,1′-biphenyl]-4-carboxylic acid] | < 10 µM | 
O[C@@H]1[C@H](O)[C@@H](Oc2cccc(C(F)(F)F)n2)CO[C@@H]1COc1cccnn1 [A216, (2R,3R,4S,5S)-2-((pyridazin-3-yloxy)methyl)-5-((6-(trifluoromethyl)pyridin-2-yl)oxy)tetrahydro-2H-pyran-3,4-diol] | < 10 µM | 
C[C@H]1O[C@H](c2cn(C3CCN(C(=O)OC(C)(C)C)CC3)nn2)[C@H](Oc2cccc(C(F)(F)F)n2)[C@@H](O)[C@H]1O [A217, tert-butyl 4-(4-((2R,3R,4S,5R,6R)-4,5-dihydroxy-6-methyl-3-((6-(trifluoromethyl)pyridin-2-yl)oxy)tetrahydro-2H-pyran-2-yl)-1H-1,2,3-triazol-1-yl)piperidine-1-carboxylate] | < 10 µM | 
C[C@H]1O[C@H](c2cn(C3CCNCC3)nn2)[C@H](Oc2cccc(C(F)(F)F)n2)[C@@H](O)[C@H]1O [A218, (2R,3R,4S,5R,6R)-2-methyl-6-(1-(piperidin-4-yl)-1H-1,2,3-triazol-4-yl)-5-((6-(trifluoromethyl)pyridin-2-yl)oxy)tetrahydro-2H-pyran-3,4-diol] | < 10 µM | 
C#C[C@H]1OC[C@H](Oc2cccc(C(F)(F)F)n2)[C@@H](O)[C@H]1O [A219, (2R,3R,4S,5S)-2-ethynyl-5-((6-(trifluoromethyl)pyridin-2-yl)oxy)tetrahydro-2H-pyran-3,4-diol] | < 10 µM | 
CC(C)(C)OC(=O)N1CCC(n2cc([C@H]3OC[C@H](Oc4cccc(C(F)(F)F)n4)[C@@H](O)[C@H]3O)nn2)CC1 [A220, tert-butyl 4-(4-((2R,3R,4S,5S)-3,4-dihydroxy-5-((6-(trifluoromethyl)pyridin-2-yl)oxy)tetrahydro-2H-pyran-2-yl)-1H-1,2,3-triazol-1-yl)piperidine-1-carboxylate] | < 10 µM | 
O=C(O)c1ccc(-c2ccc(OC[C@H]3OC[C@H](Oc4cccc(C(F)(F)F)n4)[C@@H](O)[C@H]3O)cc2)nn1 [A221, 6-(4-(((2R,3R,4S,5S)-3,4-dihydroxy-5-((6-(trifluoromethyl)pyridin-2-yl)oxy)tetrahydro-2H-pyran-2-yl)methoxy)phenyl)pyridazine-3-carboxylic acid] | < 10 µM | 
OCc1cnc(OC[C@H]2OC[C@H](Nc3cncc(C(F)(F)F)n3)[C@@H](O)[C@H]2O)nc1 [A222, (2R,3R,4R,5S)-2-(((5-(hydroxymethyl)pyrimidin-2-yl)oxy)methyl)-5-((6-(trifluoromethyl)pyrazin-2-yl)amino)tetrahydro-2H-pyran-3,4-diol] | < 10 µM | 
O=C(O)c1ccc(N2CCN(C[C@H]3OC[C@H](Nc4cncc(C(F)(F)F)n4)[C@@H](O)[C@H]3O)CC2)cc1 [A223, 4-(4-(((2R,3R,4R,5S)-3,4-dihydroxy-5-((6-(trifluoromethyl)pyrazin-2-yl)amino)tetrahydro-2H-pyran-2-yl)methyl)piperazin-1-yl) benzoic acid] | < 10 µM | 
O[C@@H]1[C@H](O)[C@@H](Oc2cccc(C(F)(F)F)n2)CO[C@@H]1c1cn(C2CCNCC2)nn1 [A224, (2R,3R,4S,5S)-2-(1-(piperidin-4-yl)-1H-1,2,3-triazol-4-yl)-5-((6-(trifluoromethyl)pyridin-2-yl)oxy)tetrahydro-2H-pyran-3,4-diol] | < 10 µM | 
O=C(O)c1ccc(-c2ccc(OC[C@H]3OC[C@H](Nc4cccc(C(F)(F)F)n4)[C@@H](O)[C@H]3O)cc2)cc1 [A225, 4′-(((2R,3R,4R,5S)-3,4-dihydroxy-5-((6-(trifluoromethyl)pyridin-2-yl)amino)tetrahydro-2H-pyran-2-yl)methoxy)-[1,1′-biphenyl]-4-carboxylic acid] | < 10 µM | 
O[C@@H]1[C@H](O)[C@@H](Nc2cccc(C(F)(F)F)n2)CO[C@@H]1COc1ncccn1 [A226, (2R,3R,4R,5S)-2-((pyrimidin-2-yloxy)methyl)-5-((6-(trifluoromethyl)pyridine-2-yl)amino)tetrahydro-2H-pyran-3,4-diol] | < 10 µM | 
O[C@@H]1[C@H](O)[C@@H](Nc2cccc(C(F)(F)F)n2)CO[C@@H]1COc1cccnn1 [A227, (2R,3R,4R,5S)-2-((pyridazin-3-yloxy)methyl)-5-((6-(trifluoromethyl)pyridine-2-yl)amino)tetrahydro-2H-pyran-3,4-diol] | < 10 µM | 
O=C(O)c1ccc(-c2ccc(OC[C@H]3OC[C@H](Oc4cccc(C(F)(F)F)n4)[C@@H](O)[C@H]3O)cc2)cc1 [A228, 4′-(((2R,3R,4S,5S)-3,4-dihydroxy-5-((6-(trifluoromethyl)pyridin-2-yl)oxy)tetrahydro-2H-pyran-2-yl)methoxy)-[1,1′-biphenyl]-4-carboxylic acid] | < 10 µM | 
O[C@@H]1[C@H](O)[C@@H](Oc2cccc(C(F)(F)F)n2)CO[C@@H]1COc1cnccn1 [A229, (2R,3R,4S,5S)-2-((pyrazin-2-yloxy)methyl)-5-((6-(trifluoromethyl)pyridin-2-yl)oxy)tetrahydro-2H-pyran-3,4-diol] | < 10 µM | 
CC(C)(C)OC(=O)N1CC2CN(C[C@H]3OC[C@H](Nc4cncc(C(F)(F)F)n4)[C@@H](O)[C@H]3O)CC21 (stereo partly drawn) [A230, tert-butyl 3-(((2R,3R,4R,5S)-3,4-dihydroxy-5-((6-(trifluoromethyl)pyrazin-2-yl)amino)tetrahydro-2H-pyran-2-yl)methyl)-3,6-diazabicyclo [3.2.0] heptane-6-carboxylate] | < 10 µM | 
O[C@@H]1[C@H](O)[C@@H](Nc2cncc(C(F)(F)F)n2)CO[C@@H]1CN1Cc2ccccc2C1 [A231, (2R,3R,4R,5S)-2-(isoindolin-2-ylmethyl)-5-((6-(trifluoromethyl)pyrazin-2-yl)amino)tetrahydro-2H-pyran-3,4-diol] | < 10 µM | 
O[C@@H]1[C@H](O)[C@@H](Nc2cncc(C(F)(F)F)n2)CO[C@@H]1CN1CCc2ccccc2C1 [A232, (2R,3R,4R,5S)-2-((3,4-dihydroisoquinolin-2(1H)-yl)methyl)-5-((6-(trifluoromethyl)pyrazin-2-yl)amino)tetrahydro-2H-pyran-3,4-diol] | < 10 µM | 
O[C@@H]1[C@H](O)[C@@H](Oc2cccc(C(F)(F)F)n2)CO[C@@H]1CN1CCCCC1 [A233, (2R,3R,4S,5S)-2-(piperidin-1-ylmethyl)-5-((6-(trifluoromethyl)pyridin-2-yl)oxy)tetrahydro-2H-pyran-3,4-diol] | < 10 µM | 
